{"source": "patent US20250186379A1", "about": "“METHODS AND AGENTS FOR DECREASING INSULIN RESISTANCE” (Whitehead Institute for Biomedical Research, priority 2021, published 2025)", "key": {"[1]": {"tested_on": "IR-FKBP condensates", "assay": "tc-PALM of IR-Dendra2-FKBP condensate lifetime in HepG2 cells", "assay_type": "cell-based, human", "settings": "HepG2 cells expressing IR-FKBP; 5 μM AP1903 16 hours vs DMSO", "text": "A CRISPR/Cas9 system was used to generate genetically modified HepG2 cell lines. Target sequences were cloned into a plasmid containing sgRNA backbone, a codon-optimized version of Cas9 and mCherry. For IR targeting, two Cas9 gRNAs were used. For the generation of the IR-mEGFP, IR-Dendra2, and IR-Dendra2-FKBP endogenously tagged lines, homology directed repair templates were cloned into pUC19 using NEBuilder HiFi DNA Assembly Master Mix (NEB, E2621S). For IR-mEGFP and IR-Dendra2 cell lines, the homology repair template consisted of mEGFP or Dendra2 cDNA sequence flanked on either side by 800 bp homology arms amplified from HepG2 genomic DNA using PCR (FIG. 27A). […]\nWidefield, live-cell, super-resolution imaging was performed in a photo-activation localization microscopy (PALM) approach using a Nikon Eclipse Ti microscope with a 100× oil immersion objective. […] During each imaging cycle, a 2400-frame video stream including a (256 pixel)^2 region of interest (ROI) was recorded in 20 Hz acquisition rate with the EM-gain setting as 1000 on an Andor iXon Ultra 897 EMCCD. […]\nTemporal clustering: For each spatial cluster, time-correlated PALM (tc-PALM) analysis was performed along the time axis to extract the truly colocalized, time-correlated multi-molecule bursting events. […] More details about the quantitative validations and statistics of tc-PALM analysis can be found in FIG. 30."}, "[2]": {"tested_on": "IR-FKBP", "assay": "Western blotting and imaging of IR activity in HepG2 cells expressing IR-GFP-FKBP", "assay_type": "cell-based, human", "settings": "5 μM AP1903 16 hours vs DMSO", "text": "For experiments that forced reduction in IR condensate dynamics, the vector used in this assay was modified from pJH135_pb_MCPx2_mCherry_rTTA vector^11. IR-mEGFP-FKBP, which consists of the insulin receptor cDNA, flexible linker 1, mEGFP, flexible linker 2, and four copies of FKBP, was cloned into PmeI and NheI digested pJH135_pb_MCPx2_mCherry_rTTA using Gibson cloning by following the manufacturer's instructions (NEB, E2621S). This vector is called JP204 pb_TetON_INSR_2A_GFP_Dmbr4.\nFor experiments that forced reduction in IR condensate dynamics, 1×10^5 cells/cm^2 HepG2 cells were transfected with 0.07 μg/cm^2 pJP204_pb_TetON_INSR_2A_GFP_Dmbr4 using Lipofectamine 3000 (Invitrogen, L3000). On day 2, the cells were treated with 100 ng/ml doxycycline (Sigma, D9891-5G). […]\nCells were washed with ice-cold PBS (Life Technologies, AM9625) and lysed in Cell Lytic M (Sigma Aldrich C2978) supplemented with protease and phosphatase inhibitors (Sigma Aldrich, 11873580001 and 4906837001) directly on the wells. […] Super natant was collected and protein concentration was determined using a BCA Protein Assay Kit (Life Technologies, 23250) according to the manufacturer's instructions. […] Immunoblot quantification was performed using the “analyze gel” tool on Fiji/ImageJ v2.1.0/153c.\nTo quantify pIRS1 fluorescent signal in IR puncta/condensates manually, Airyscan images were opened on Fiji as composite images. […]"}}, "data": [{"compound": "CC[C@H](C(=O)N1CCCC[C@H]1C(=O)O[C@H](CCc1ccc(OC)c(OC)c1)c1cccc(OCC(=O)NCCNC(=O)COc2cccc([C@@H](CCc3ccc(OC)c(OC)c3)OC(=O)[C@@H]3CCCCN3C(=O)[C@@H](CC)c3cc(OC)c(OC)c(OC)c3)c2)c1)c1cc(OC)c(OC)c(OC)c1", "note": "[AP1903]", "values": [{"measurement": "lifetime of IR condensates", "setting": "[1]", "value": "significantly increased the lifetime of IR condensates"}, {"measurement": "IR functional activity (pIR-FKBP, pIRS1)", "setting": "[2]", "value": "less functionally active"}]}]}
